Measurements reported in article PMC8464905, “Novel c-Jun N-Terminal Kinase (JNK) Inhibitors with an 11H-Indeno[1,2-b]quinoxalin-11-one Scaffold” (Molecules, 2021).

Tests used:
[1] = CellTiter-Glo cytotoxicity in THP-1Blue cells; assay type: cell-based, human; conditions: human, THP-1Blue cells; 24-h incubation, up to 50 μM; read-out: THP-1Blue Cell Cytotoxicity IC50
Protocol: (§1) All cells were cultured at 37 °C in a humidified atmosphere containing 5% CO2. THP1-Blue cells obtained from InvivoGen (San Diego, CA, USA) were cultured in RPMI 1640 medium (Mediatech Inc., Herndon, VA, USA) supplemented with 10% (v/v) fetal bovine serum (FBS), 100 μg/mL streptomycin, 100 U/mL penicillin, 100 μg/mL phleomycin (Zeocin), and 10 μg/mL blasticidin S. Human monocyte-macrophage MonoMac-6 cells (Deutsche Sammlung von Mikroorganismen und Zellkulturen GmbH, Braunschweig, Germany) were grown in RPMI 1640 medium supplemented with 10% (v/v) FBS, 10 μg/mL bovine insulin, 100 μg/mL streptomycin, and 100 U/mL penicillin.
(§2) Cytotoxicity was analyzed with a CellTiter-Glo Luminescent Cell Viability Assay Kit from Promega (Madison, WI, USA), according to the manufacturer’s protocol. Cells were treated with compounds under investigation and incubated for 24 h. After treatment, the cells were equilibrated to room temperature for 30 min, substrate was added, and the samples were analyzed with a Fluoroscan Ascent FL (Thermo Fisher Scientific, Waltham, MA, USA). The IC50 values were calculated by plotting percentage inhibition against the logarithm of inhibitor concentration (at least five points).

JNK1 = molecular target: T1, JNK1 (Homo sapiens, UniProt P45983); assay: KINOMEscan Kd determination, JNK1; conditions: duplicate, mean, N.B. = no binding at < 30 μM
T1 construct: purchased Eurofins Pharma Discovery (KINOMEscan)
Protocol: (§3) Selected compounds were submitted for dissociation constant (Kd) determination using KINOMEscan (Eurofins Pharma Discovery, San Diego, CA, USA), as described previously. […] Primary screening at fixed concentrations of compounds was performed in duplicate.

[2] = CellTiter-Glo cytotoxicity in MonoMac-6 cells; assay type: cell-based, human; conditions: human, MonoMac-6 cells; 24-h incubation, up to 50 μM; read-out: MonoMac-6 Cell Cytotoxicity IC50
Protocol: as §1, §2

IL-6 = assay: LPS-induced IL-6 production in MonoMac-6 cells (ELISA); assay type: cell-based; conditions: Homo sapiens, MONO-MAC-6; 30 min pretreatment, 250 ng/mL LPS for 24 h; read-out: MonoMac-6 Cell IL-6 IC50
Protocol: as §1
A human IL-6 ELISA kit (BD Biosciences, San Jose, CA, USA) was measure IL-6 production. MonoMac-6 cells were plated in 96-well plates at a density of 2 × 10^5 cells/well in culture medium supplemented with 3% (v/v) endotoxin-free FBS. The cells were pretreated with test compound or DMSO for 30 min, followed by addition of 250 ng/mL LPS for 24 h. IC50 values for IL-6 production were calculated by plotting percentage inhibition against the logarithm of inhibitor concentration (at least five points).

NF-κB/AP-1 = assay: LPS-induced NF-κB/AP-1 alkaline phosphatase reporter assay in THP1-Blue cells; assay type: cell-based; conditions: Homo sapiens; 30 min pretreatment, 250 ng/mL LPS for 24 h; read-out: THP-1Blue Cell NF-κB/AP-1 IC50
Protocol: as §1
Activation of AP-1/NF-κB was measured using an alkaline phosphatase reporter gene assay in THP1-Blue cells. Human monocytic THP-1 Blue cells are stably transfected with a secreted embryonic alkaline phosphatase gene that is under the control of a promoter inducible by NF-κB/AP-1. THP1-Blue cells (2 × 10^5 cells/well) were pretreated with test compound or DMSO for 30 min, followed by addition of 250 ng/mL lipopolysaccharide (LPS) for 24 h, and alkaline phosphatase activity was measured in cell supernatants using QUANTI-Blue mix (InvivoGen) as absorbance at 655 nm and compared with positive control samples (LPS). For selected compounds, the concentrations of inhibitor that caused 50% inhibition of the NF-κB reporter activity (IC50) were calculated.

JNK3 = molecular target: T2, JNK3 (Homo sapiens, UniProt P53779); assay: KINOMEscan Kd determination, JNK3; conditions: duplicate, mean, N.B. = no binding at < 30 μM
T2 construct: purchased Eurofins Pharma Discovery (KINOMEscan)
Protocol: as §3

JNK2 = molecular target: T3, JNK2 (Homo sapiens, UniProt P45984); assay: KINOMEscan Kd determination, JNK2; conditions: duplicate, mean, N.B. = no binding at < 30 μM
T3 construct: purchased Eurofins Pharma Discovery (KINOMEscan)
Protocol: as §3

JNK1-3 = assay: KINOMEscan binding, statements for all three JNK isoforms; conditions: summary of Table 3
Protocol: as §3

MonoMac-6 cells = assay: CellTiter-Glo cytotoxicity in MonoMac-6 cells; assay type: cell-based, human; conditions: 24-h incubation, up to 50 μM
Protocol: as §1, §2

THP-1Blue cells = assay: CellTiter-Glo cytotoxicity in THP-1Blue cells; assay type: cell-based, human; conditions: 24-h incubation, up to 50 μM
Protocol: as §1, §2

T1 sequence (P45983 whole entry): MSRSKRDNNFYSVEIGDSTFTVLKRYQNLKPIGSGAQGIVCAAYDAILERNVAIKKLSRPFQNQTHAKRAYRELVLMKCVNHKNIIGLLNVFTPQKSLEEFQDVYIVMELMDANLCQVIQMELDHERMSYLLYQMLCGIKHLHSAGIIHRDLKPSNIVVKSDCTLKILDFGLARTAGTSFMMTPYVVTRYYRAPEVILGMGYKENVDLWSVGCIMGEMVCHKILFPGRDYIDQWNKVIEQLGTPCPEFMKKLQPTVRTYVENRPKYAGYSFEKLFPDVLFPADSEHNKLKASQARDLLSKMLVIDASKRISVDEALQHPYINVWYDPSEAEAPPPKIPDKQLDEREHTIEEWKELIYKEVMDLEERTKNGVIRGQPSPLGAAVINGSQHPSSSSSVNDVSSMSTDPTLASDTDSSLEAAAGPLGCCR
T3 sequence (P45984 whole entry): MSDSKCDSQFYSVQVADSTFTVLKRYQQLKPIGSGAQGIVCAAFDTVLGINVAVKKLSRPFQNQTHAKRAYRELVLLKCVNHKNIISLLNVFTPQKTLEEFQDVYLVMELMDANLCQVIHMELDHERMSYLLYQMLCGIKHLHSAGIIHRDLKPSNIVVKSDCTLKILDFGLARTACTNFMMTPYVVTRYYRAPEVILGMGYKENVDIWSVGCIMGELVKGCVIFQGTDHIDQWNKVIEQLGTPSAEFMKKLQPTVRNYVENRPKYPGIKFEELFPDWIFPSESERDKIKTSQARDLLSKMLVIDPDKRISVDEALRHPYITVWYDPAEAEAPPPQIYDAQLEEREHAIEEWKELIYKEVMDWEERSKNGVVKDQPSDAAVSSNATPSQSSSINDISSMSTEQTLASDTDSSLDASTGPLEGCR
T2 sequence (P53779 whole entry): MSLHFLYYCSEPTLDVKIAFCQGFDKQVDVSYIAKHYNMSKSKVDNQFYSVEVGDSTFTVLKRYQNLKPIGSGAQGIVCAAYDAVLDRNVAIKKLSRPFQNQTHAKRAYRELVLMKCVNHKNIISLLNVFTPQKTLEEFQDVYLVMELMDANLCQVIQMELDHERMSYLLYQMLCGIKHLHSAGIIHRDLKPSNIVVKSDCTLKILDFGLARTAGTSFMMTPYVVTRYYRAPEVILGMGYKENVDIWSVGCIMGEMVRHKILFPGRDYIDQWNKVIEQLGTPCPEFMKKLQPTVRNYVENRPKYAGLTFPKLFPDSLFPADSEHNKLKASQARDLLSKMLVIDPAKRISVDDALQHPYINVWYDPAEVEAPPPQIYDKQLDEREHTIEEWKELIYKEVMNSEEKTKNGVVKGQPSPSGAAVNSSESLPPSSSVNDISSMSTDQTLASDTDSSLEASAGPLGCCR

Structure (SMILES) | IC50 at 24 h [1] | Kd (JNK1) | IC50 at 24 h [2] | melting point | IC50 (IL-6) | IC50 (NF-κB/AP-1) | Kd (JNK3) | Kd (JNK2) | Binding affinity (Kd) for all three JNK isoforms, in words (JNK1-3) | MonoMac-6 Cell Cytotoxicity IC50 (MonoMac-6 cells) | THP-1Blue Cell Cytotoxicity IC50 (THP-1Blue cells)
ON=C1c2ccccc2-c2nc3cc(F)c(Cl)cc3nc21 [Compound 4k, 8-Chloro-7-fluoro-11H-indeno[1,2-b]quinoxalin-11-one Oxime] | > 50000 nM | > 30000 nM | > 50000 nM | 276 to 277 °C | 2300 ± 400 nM | 600 ± 200 nM | 24500 ± 2100 nM | > 30000 nM |  |  | 
O/N=C1/c2ccccc2-c2nc3c(Cl)cc(C(F)(F)F)cc3nc21 [Compound 4i, (11Z/E)-6-Chloro-8-(trifluoromethyl)-11H-indeno[1,2-b]quinoxalin-11-one Oxime] | > 50000 nM | > 30000 nM | > 50000 nM | 324 to 325 °C | 6200 ± 200 nM | 2900 ± 900 nM | > 30000 nM | > 30000 nM | inactive |  | 
ON=C1c2ccccc2-c2nc3c(F)c(F)ccc3nc21 [Compound 4g, 6,7-Difluoro-11H-indeno[1,2-b]quinoxalin-11-one Oxime] | > 50000 nM | 520 ± 90 nM | 32000 ± 2200 nM | 257 to 258 °C |  | 2100 ± 400 nM | 1100 ± 100 nM | 910 ± 60 nM |  | cytotoxic | 
COC(=O)c1ccc2nc3c(nc2c1)C(=NO)c1ccccc1-3 [Compound 4l, Methyl-11-(hydroxyimino)-11H-indeno[1,2-b]quinoxaline-8-carboxylate] | 26100 ± 5300 nM | 910 ± 160 nM | > 50000 nM | 300 to 301 °C | > 50000 nM |  | 710 ± 50 nM | 2400 ± 200 nM | submicromolar |  | exhibited cytotoxicity
CC(C)(C)c1ccc2nc3c(nc2c1)-c1ccccc1/C3=N/O [Compound 4d, (11Z/E)-7-tert-Butyl-11H-indeno[1,2-b]quinoxalin-11-one Oxime] | > 50000 nM | 3100 ± 100 nM | > 50000 nM | 197 to 198 °C | 1000 ± 200 nM | 400 ± 100 nM | 3100 ± 200 nM | 1600 ± 600 nM | relatively low affinity |  | 
ON=C1c2ccccc2-c2nc3cc(F)ccc3nc21 [Compound 4a, 7-Fluoro-11H-indeno[1,2-b]quinoxalin-11-one Oxime] | > 50000 nM | 280 ± 70 nM | > 50000 nM | 250 to 251 °C | 3000 ± 600 nM | 300 ± 100 nM | 190 ± 10 nM | 620 ± 10 nM | submicromolar |  | 
ON=C1c2ccccc2-c2nc3c(F)cc(F)cc3nc21 [Compound 4e, 6,8-Difluoro-11H-indeno[1,2-b]quinoxalin-11-one Oxime] | > 50000 nM | 920 ± 50 nM | > 50000 nM | 255 to 256 °C | 2200 ± 200 nM | 400 ± 100 nM | 900 ± 300 nM | 1600 ± 10 nM | submicromolar |  | 
ON=C1c2ccccc2-c2nc3c(Cl)cccc3nc21 [Compound 4b, 6-Chloro-11H-indeno[1,2-b]quinoxalin-11-one Oxime] | > 50000 nM | 170 ± 40 nM | > 50000 nM | 270 to 271 °C | 1200 ± 400 nM | 900 ± 300 nM | 140 ± 30 nM | 220 ± 60 nM | submicromolar |  | 
ON=C1c2ccccc2-c2nc3c(C(F)(F)F)cc(C(F)(F)F)cc3nc21 [Compound 4j, 6,8-bis(Trifluoromethyl)-11H-indeno[1,2-b]quinoxalin-11-one oxime] | 36500 ± 1900 nM | > 30000 nM | > 50000 nM | 253 to 254 °C | 4800 ± 500 nM |  | > 30000 nM | > 30000 nM | inactive |  | exhibited cytotoxicity
